The values below come from patent publication US20030225152A1, “3-(Arylamino)methylene-1, 3-dihydro-2h-indol-2-ones as kinase inhibitors” (priority 2001, published 2003).

For assay [1], the system named is VEGF induced increases in intracellular calcium levels in HUVEC (human umbilical vein endothelial cells). As to the kind of experiment: VEGF Stimulated Ca++ Signal in vitro (FLIPR). The assay is classed as cell-based. The note with it: VEGF 5 ng/mL; for IC50: 0.01 to 10.0 μM. The procedure, abridged:
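HUVEC loaded with Fluo-4 (45 min, 37° C.), washed, then pre-incubated 30 min with compound (10 μM single dose or 0.01–10.0 μM; 0.1% DMSO) before 5 ng/mL VEGF. Fluorescence at 516 nm read by FLIPR; IC50 from % inhibition of max-min VEGF response.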

Assay [2] has as its target T1, cytoplasmic domain of the human VEGF receptor (VEGFR-2) (Homo sapiens, UniProt P35968).
T1 construct: The cytoplasmic domain of the human VEGF receptor (VEGFR-2) was expressed as a Histidine-tagged fusion protein; Histidine tag
Kind of assay: KDR Assay. In kind it is biochemical. To be noted: His-VEGFR-2; 3.6 μM ATP. The procedure, abridged:
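His-tagged human VEGFR-2 cytoplasmic domain from baculovirus-infected insect cells, acting on poly-Glu-Tyr (4:1)-coated plates with 3.6 μM ATP in Hepes pH 7.4 with MgCl2/MnCl2 and 5% final DMSO, 10 min at 25 °C. Phosphotyrosine detected by peroxidase-conjugated antibody ELISA at 492 nm; IC50 from blank-subtracted OD versus concentration.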

A value given as a limit tells only on which side of the number the result lay.

T1 sequence (P35968 786-1356): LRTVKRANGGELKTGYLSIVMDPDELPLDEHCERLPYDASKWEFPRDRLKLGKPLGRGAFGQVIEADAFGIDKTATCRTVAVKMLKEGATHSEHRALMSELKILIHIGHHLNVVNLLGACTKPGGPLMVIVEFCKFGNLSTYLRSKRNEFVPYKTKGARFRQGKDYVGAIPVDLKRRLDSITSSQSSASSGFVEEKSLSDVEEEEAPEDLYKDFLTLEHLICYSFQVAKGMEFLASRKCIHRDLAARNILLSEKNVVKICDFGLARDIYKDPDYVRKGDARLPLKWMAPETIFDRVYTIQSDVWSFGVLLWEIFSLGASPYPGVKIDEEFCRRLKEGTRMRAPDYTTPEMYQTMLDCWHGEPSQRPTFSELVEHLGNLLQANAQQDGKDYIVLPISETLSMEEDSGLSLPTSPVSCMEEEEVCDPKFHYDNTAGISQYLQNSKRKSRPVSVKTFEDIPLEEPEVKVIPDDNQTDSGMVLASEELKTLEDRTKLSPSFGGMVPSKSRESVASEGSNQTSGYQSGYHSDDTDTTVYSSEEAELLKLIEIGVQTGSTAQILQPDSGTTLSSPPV

One may read the inhibition as the percentage by which the read-out fell short of the control. Usually IC50 stands for the concentration at which inhibition is half-maximal. Regarding `CN1CCN(c2ccc(NC=C3C(=O)Nc4ccc(F)cc43)cc2)CC1` [Example 168, 5-Fluoro-3-{[4-(4-methyl-piperazin-1-yl)-phenylamino]-methylene}-1,3-dihydro-indol-2-one], the inhibition at 10 µM in assay [1] (Homo sapiens) turned out to be 94.3%. In addition, the IC50 in assay [2] amounted to 140 nM.
For `CN1CCN(c2ccc(NC=C3C(=O)Nc4cc(F)ccc43)cc2)CC1` [Example 230, 6-Fluoro-3-{[4-(4-methyl-piperazin-1-yl)-phenylamino]-methylene}-1,3-dihydro-indol-2-one], the inhibition at 10 µM in assay [1] (Homo sapiens) turned out to be 96.4%. Besides, the IC50 in assay [2] was found to be 80 nM.
With `O=C1Nc2ccc(Cl)cc2C1=CNc1ccc(OCCCN2CCCCC2)cc1` [Example 241, 5-Chloro-3-{[4-(3-piperidin-1-yl-propoxy)-phenylamino]-methylene}-1,3-dihydro-indol-2-one], in assay [1] (Homo sapiens), the inhibition at 10 µM was found to be 95.8% and the IC50 was 1010 nM. Besides, half-maximal inhibition in assay [2] (IC50) was put at 130 nM.
For the compound `O=C1Nc2cccc(F)c2C1=CNc1ccc(CCN2CCOCC2)cc1` [Example 309, 4-Fluoro-3-{[4-(2-morpholin-4-yl-ethyl)-phenylamino]-methylene}-1,3-dihydro-indol-2-one], the 50% inhibitory concentration (IC50) is 680 nM in assay [1], ≤ 1000 nM in assay [1] (Homo sapiens) and 230 nM in assay [2].
Take `CC(O)c1cccc(NC=C2C(=O)Nc3ccccc32)c1` (stereo not drawn) [Example 182, 3-{[3-(1-Hydroxy-ethyl)-phenylamino]-methylene}-1,3-dihydro-indol-2-one]: in assay [1] (Homo sapiens), the inhibition at 10 µM came to 99.3% and the half-maximal inhibitory concentration (IC50) worked out at 950 nM. In assay [2], this compound displayed an IC50 of 1650 nM.
For the compound `Cc1cccc2c1C(=CNc1ccc(C(=S)N3CCOCC3)cc1)C(=O)N2` [Example 196, 4-Methyl-3-{[4-(1-morpholin-4-yl-methanethiol)-phenylamino]-methylene}-1,3-dihydro-indol-2-one], the IC50 is 770 nM in assay [1], ≤ 1000 nM in assay [1] (Homo sapiens) and 50 nM in assay [2]. Besides, the inhibition at 10 µM in assay [1] (Homo sapiens) was 73.1%.
As for `O=C1Nc2cccc(F)c2C1=CNc1ccc(OCCN2CCCC2)cc1` [Example 273, 4-Fluoro-3-{[4-(2-pyrrolidin-1-yl-ethoxy)-phenylamino]-methylene}-1,3-dihydro-indol-2-one], the half-maximal inhibitory concentration (IC50) in assay [1] (Homo sapiens) amounted to 1070 nM; in assay [2], 330 nM.
As for `O=C(O)CCCc1ccc(NC=C2C(=O)Nc3ccc(Cl)cc32)cc1` [Example 150, 4-{4-[(5-Chloro-2-oxo-1,2-dihydro-indol-3-ylidenemethyl)-amino]-phenyl}-butyric acid], in assay [1] (Homo sapiens), the inhibition at 10 µM stood at 90.9% and the half-inhibitory concentration (IC50) came to 1850 nM. Also, half-maximal inhibition in assay [2] (IC50) required 300 nM.
As to `O=C1Nc2ccc(Cl)cc2C1=CNc1ccc(CN2CCOCC2)cc1` [Example 291, 5-Chloro-3-[(4-morpholin-4-ylmethyl-phenylamino)-methylene]-1,3-dihydro-indol-2-one], the IC50 in assay [1] was 660 nM; in assay [1] (Homo sapiens), ≤ 1000 nM; in assay [2], 210 nM.
Take `O=C(O)Cc1cccc(NC=C2C(=O)Nc3ccccc32)c1` [Example 35, (3-[(2-Oxo-1,2-dihydro-indol-3-ylidenemethyl)-amino]-phenyl-)acetic acid]: the inhibition at 10 µM in assay [1] (Homo sapiens) is 95.1%. In addition, the 50% inhibitory concentration (IC50) in assay [1] (Homo sapiens) turned out to be 3100 nM; in assay [2], 190 nM.
The corresponding values for `CC(C)(C)OC(=O)Nc1ccc(NC=C2C(=O)Nc3ccccc32)cc1` [Example 186, {4-[(2-Oxo-1,2-dihydro-indol-3-ylidenemethyl)-amino]-phenyl}-carbamic acid tert-butyl ester] are 99%, 1920 nM and 890 nM.
Consider `O=C(O)CCCc1ccc(NC=C2C(=O)Nc3ccccc32)cc1` [Example 139, 4-{4-[(2-Oxo-1,2-dihydro-indol-3-ylidenemethyl)-amino]-phenyl}-butyric acid], for which, in assay [1] (Homo sapiens), the inhibition at 10 µM is 99.3% and the half-maximal inhibitory concentration (IC50) stood at 1620 nM. Besides, the 50% inhibitory concentration (IC50) in assay [2] turned out to be 530 nM.
Turning to `Cc1ccc(NC=C2C(=O)Nc3ccccc32)cc1C` [Example 20, 3-[(3,4-Dimethyl-phenylamino)-methylene]-1,3-dihydro-indol-2-one], in assay [1] (Homo sapiens), the inhibition at 10 µM turned out to be 63% and the half-inhibitory concentration (IC50) stood at 1820 nM. In addition, the IC50 in assay [2] was 1210 nM.
Take `O=C1Nc2ccccc2C1=CNc1cccc(O)c1` [Example 15, 3-[(3-Hydroxy-phenylamino)-methylene]-1,3-dihydro-indol-2-one]: in assay [1] (Homo sapiens), the inhibition at 10 µM was found to be 93.7%. In assay [2], this compound returned an IC50 of 910 nM.
As for `CCOC(=O)Nc1ccc(NC=C2C(=O)Nc3ccccc32)cc1O` [Example 134, {2-Hydroxy-4-[(2-oxo-1,2-dihydro-indol-3-ylidenemethyl)-amino]-phenyl}-carbamic acid ethyl ester], in assay [1] (Homo sapiens), the inhibition at 10 µM came out at 83.1%. Also, the values for the IC50 in assay [1] (Homo sapiens) and in assay [2] were 7390 nM and 1120 nM, respectively.
In the case of `CC(C)c1ccc(NC=C2C(=O)Nc3ccccc32)cc1` [Example 52, 3-[(4-Isopropyl-phenylamino)-methylene]-1,3-dihydro-indol-2-one], the inhibition at 10 µM in assay [1] (Homo sapiens) was 69%. Also, the concentration for half-maximal inhibition (IC50) was determined as 2280 nM in assay [1] (Homo sapiens) and 580 nM in assay [2].
For `O=C1Nc2ccc(F)cc2C1=CNc1ccc2[nH]ccc2c1` [Example 162, 5-Fluoro-3-[(1 h-indol-5-ylamino)-methylene]-1,3-dihydro-indol-2-one] the same measures were 89.9%, 1050 nM and 300 nM.
In the case of `Cc1cccc2c1C(=CNc1cccc(C(C)O)c1)C(=O)N2` (stereo not drawn) [Example 183, 3-{[3-(1-Hydroxy-ethyl)-phenylamino]-methylene}-4-methyl-1,3-dihydro-indol-2-one], the half-inhibitory concentration (IC50) is 750 nM in assay [1], ≤ 1000 nM in assay [1] (Homo sapiens) and 520 nM in assay [2]. Moreover, the inhibition at 10 µM in assay [1] (Homo sapiens) is 98.9%.
As for `CCc1ccc(NC=C2C(=O)Nc3ccc(Cl)cc32)cc1` [Example 149, 5-Chloro-3-[(4-ethyl-phenylamino)-methylene]-1,3-dihydro-indol-2-one], the inhibition at 10 µM in assay [1] (Homo sapiens) was 17.7%. Also, the IC50 in assay [2] is 620 nM.
For the compound `Cc1cccc2c1C(=CNc1ccc(OC(F)F)cc1)C(=O)N2` [Example 119, 3-{[4-(1,1-Difluoro-methoxy)-phenylamino]-methylene}-4-methyl-1,3-dihydro-indol-2-one], in assay [1] (Homo sapiens), the inhibition at 10 µM was determined as 89.3% and the 50% inhibitory concentration (IC50) came out at 1340 nM. In assay [2], inhibition was half-maximal at 530 nM (IC50).
Turning to `O=C1Nc2ccccc2C1=CNc1ccc2[nH]ccc2c1` [Example 31, 3-[(5-Indolylamino)-methylene]-1,3-dihydro-indol-2-one], the IC50 in assay [1] was 720 nM; in assay [1] (Homo sapiens), ≤ 1000 nM; in assay [2], 570 nM. Also, in assay [1] (Homo sapiens), the inhibition at 10 µM was determined as 98.6%.
On to `O=C1Nc2ccccc2C1=CNc1ccc(CCO)cc1` [Example 87, 3-{[4-(2-Hydroxyethyl)phenylamino]-methylene}-1,3-dihydro-indol-2-one], for which the inhibition at 10 µM in assay [1] (Homo sapiens) stood at 79.5%. The IC50 in assay [1] (Homo sapiens) came to 2250 nM; in assay [2] it was 460 nM.
Consider `Cc1cccc2c1C(=CNc1ccc3cn[nH]c3c1)C(=O)N2` [Example 90, 3-[(1H-Indazol-6-ylamino)-methylene]-4-methyl-1,3-dihydro-indol-2-one], for which, in assay [1] (Homo sapiens), the inhibition at 10 µM amounted to 97.8%. This compound also had an IC50 in assay [2] of 220 nM.
For `Cc1cccc2c1C(=CNc1ccc(N3CCOCC3)cc1)C(=O)N2` [Example 227, 4-Methyl-3-[(4-morpholin-4-yl-phenylamino)-methylene]-1,3-dihydro-indol-2-one] the same measures were 85.9% and 50 nM.
As to `O=C1Nc2ccccc2C1=CNc1ccc(CO)cc1` [Example 88, 3-[(4-Hydroxymethyl-phenylamino)-methylene]-1,3-dihydro-indol-2-one], the IC50 in assay [1] is 1000 nM; in assay [1] (Homo sapiens) it was ≤ 1000 nM; in assay [2], 410 nM. Besides, the inhibition at 10 µM in assay [1] (Homo sapiens) was found to be 97.5%.
Regarding `COc1ccc(NC=C2C(=O)Nc3ccccc32)cc1F` [Example 21, 3-[(3-Fluoro-4-methoxy-phenylamino)-methylene]-1,3-dihydro-indol-2-one], in assay [1] (Homo sapiens), the inhibition at 10 µM amounted to 88% and the IC50 amounted to 1500 nM. In assay [2], this compound gave an IC50 of 720 nM.
As to `Cc1cccc2c1C(=CNc1ccc(CN3CCCCC3)cc1)C(=O)N2` [Example 256, 4-Methyl-3-[(4-piperidin-1-ylmethyl-phenylamino)-methylene]-1,3-dihydro-indol-2-one], the figures for the IC50 in assay [1], in assay [1] (Homo sapiens) and in assay [2] were 670 nM, ≤ 1000 nM and 190 nM, respectively.
Regarding `O=C(O)CCc1cccc(NC=C2C(=O)Nc3ccc(Cl)cc32)c1` [Example 143, 3-{3-[(5-Chloro-2-oxo-1,2-dihydro-indol-3-ylidenemethyl)-amino]-phenyl}-propionic acid], in assay [1] (Homo sapiens), the inhibition at 10 µM is 66.9% and the 50% inhibitory concentration (IC50) amounted to 7610 nM. In addition, the IC50 in assay [2] was 520 nM.
The corresponding values for `NC(=O)c1ccc(NC=C2C(=O)Nc3ccccc32)cc1` [Example 33, 3-[(4-Benzamidylamino)-methylene]-1,3-dihydro-indol-2-one] are 95.9%, 1350 nM and 880 nM.
Turning to `O=C1Nc2cccc(F)c2C1=CNc1ccc(NCCCN2CCOCC2)cc1` [Example 301, 4-Fluoro-3-{[4-(3-morpholin-4-yl-propylamino)-phenylamino]-methylene}-1,3-dihydro-indol-2-one], the results for the IC50 in assay [1], in assay [1] (Homo sapiens) and in assay [2] were 770 nM, ≤ 1000 nM and 270 nM, respectively.
